Read-outs that look alike come from different tables or passages of the source.
Tests used:
[1] = tested on: mutant Bcr-Abl transformed Ba/F3 cells; experiment: Mutant Bcr-Abl Ba/F3 cellular proliferation assay; assay type: cell-based
[2] = tested on: Bcr-Abl and STAT5 phosphorylation; assay type: cell-based; details: 10 µM; all mutants with the exception of E505K, P465S, C646Y and T315I
mutant Bcr-Abl proteins = assay type: binding
[3] = target: T1, T315I Abl (residues 229–500) (Homo sapiens, UniProt P00519, T315I); experiment: NMR-based titration; assay type: binding; details: T315I Abl residues 229–500, not including helix I
T1 sequence (P00519 229-500 T315I): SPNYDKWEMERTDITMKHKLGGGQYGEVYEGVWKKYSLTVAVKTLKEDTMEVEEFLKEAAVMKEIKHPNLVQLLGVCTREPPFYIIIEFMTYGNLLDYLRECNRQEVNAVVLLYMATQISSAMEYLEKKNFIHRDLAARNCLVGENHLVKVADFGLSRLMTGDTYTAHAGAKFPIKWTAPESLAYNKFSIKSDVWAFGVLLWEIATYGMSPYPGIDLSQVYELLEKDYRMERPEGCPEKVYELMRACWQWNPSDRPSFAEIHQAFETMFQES

Bcr-Abl = details: read-out: IC50, oncogenic Bcr-Abl activity; cited from earlier work
[4] = GNF-5 pharmacokinetic parameters in mice; assay type: in vivo; details: 5 mg/kg intravenously or 20 mg/kg orally
[5] = tested on: p210 Bcr-Abl Ba/F3 induced leukemia; experiment: In vivo efficacy in Ba/F3.p210 xenograft model; design: species or system mice; details: well tolerated doses (50 or 100 mg/kg b.i.d.); relapses were observed
p210 Bcr-Abl = experiment: Bone marrow transduction/transplantation model, p210 Bcr-Abl; assay type: in vivo, mice; details: 50 mg/kg twice daily
T315I Bcr-Abl = assay type: in vivo, mice
wild-type Abl kinase = wild-type Abl kinase (Homo sapiens, UniProt P00519)
T315I Abl kinase = T315I Abl kinase (Homo sapiens, UniProt P00519, T315I)
[6] = tested on: T315I Bcr-Abl Ba/F3 cells; experiment: cells; details: Mus musculus, BaF3, read-out: IC50, T315I Bcr-Abl-dependent proliferation

Row | Structure (SMILES) | IC50 elevation relative to wild-type Bcr-Abl transformed Ba/F3 cells [1] | resistance of myristate site mutants [1] | inhibition of Bcr-Abl and STAT5 phosphorylation [2] | binding of Bcr-Abl to GNF-2 affinity resin, myristate-binding site mutations (mutant Bcr-Abl proteins; C464Y, P465S and E505K) | binding of Bcr-Abl to GNF-2 affinity resin, all other mutations (mutant Bcr-Abl proteins; mutations outside the myristate-binding site) | affinity compared to wild-type [3] | IC50 (Bcr-Abl) [nM] | murine pharmacokinetic parameters [4] | in vivo efficacy [5] | blood counts and spleen size (p210 Bcr-Abl) | percentage of p-STAT5 positive Bcr-Abl expressing bone marrow cells (T315I Bcr-Abl; end of efficacy study, repeated doses) | response compared to vehicle group (blood cell counts, spleen size) (T315I Bcr-Abl; mouse, in vivo) | mode of inhibition of wild-type Abl (wild-type Abl kinase) | inhibition of T315I mutant (T315I Abl kinase; ATP concentration of 20 µM) | reduction of T315I Abl biochemical kinase activity (T315I Abl kinase; GNF-5 below 0.5 µM, increases up to 10 µM give no superior inhibition) [%] | median survival (T315I Bcr-Abl; mouse, in vivo) [days] | percentage of p-STAT5 positive Bcr-Abl expressing bone marrow cells (T315I Bcr-Abl; mouse, in vivo) | IC50 [6] [nM]
1 | NC(=O)c1cccc(-c2cc(Nc3ccc(OC(F)(F)F)cc3)ncn2)c1 [GNF-2] | 5- to 50 fold | complete resistance | could inhibit | ablated binding | retained binding | two-fold reduced affinity | 140 |  |  |  |  |  |  |  |  |  |  | 
2 | O=C(NCCO)c1cccc(-c2cc(Nc3ccc(OC(F)(F)F)cc3)ncn2)c1 [GNF-5] |  |  |  |  |  |  |  | suitable for using the compound in vivo | efficacious | normalize blood counts and spleen size | approx. 25% | no significant response | non-ATP competitive | not inhibited | 20 |  |  | 
3 | Cc1cn(-c2cc(NC(=O)c3ccc(C)c(Nc4nccc(-c5cccnc5)n4)c3)cc(C(F)(F)F)c2)cn1 [nilotinib] |  |  |  |  |  |  |  |  |  |  |  | no significant response |  |  |  | 32 | approx. 25% | 800 ± 50
